Test results from the NIST ThermoML archive (doi:10.1016/j.tca.2007.05.014).
Numbers after ± are expanded uncertainties.

Columns and labels:
[1] = Molar enthalpy of transition or fusion; details: Crystal; Adiabatic calorimetry
[2] = molar heat capacity at constant pressure; details: 101.33 kPa, Crystal, Vacuum adiabatic calorimetry

c1ccc(CSSCc2ccccc2)cc1 [1,4-diphenyl-2,3-dithiabutane]
Details	Molar enthalpy of transition or fusion [kcal/mol]
[1]	10.75 ± 0.012

[2]
Details	molar heat capacity at constant pressure [J/K/mol]
80 K	108.82 ± 0.47
80.3 K	108.33 ± 0.47
84.06 K	111.79 ± 0.48
85 K	111.44 ± 0.48
87.01 K	113.48 ± 0.49
90 K	116.01 ± 0.52
90.01 K	116.34 ± 0.52
92.93 K	118.76 ± 0.52
95 K	122.1 ± 0.54
95.91 K	122.02 ± 0.54
99.41 K	127.8 ± 0.56
100 K	129.33 ± 0.56
103.24 K	135.01 ± 0.59
105 K	137.39 ± 0.6
106.95 K	141.28 ± 0.61
110 K	145.99 ± 0.63
110.69 K	147.39 ± 0.64
114.47 K	153.91 ± 0.67
115 K	154.9 ± 0.67
118.16 K	160.1 ± 0.69
120 K	163.94 ± 0.71
121.87 K	169.57 ± 0.73
125 K	172.98 ± 0.74
125.68 K	176.87 ± 0.76
129.35 K	179.77 ± 0.77
130 K	181.89 ± 0.77
132.96 K	185.92 ± 0.79
135 K	190.59 ± 0.81
136.61 K	192.1 ± 0.81
140 K	199.02 ± 0.85
140.35 K	197.02 ± 0.84
144.38 K	205.28 ± 0.87
145 K	207.16 ± 0.88
147.99 K	211.7 ± 0.9
150 K	214.97 ± 0.91
151.7 K	217.62 ± 0.92
155 K	222.48 ± 0.94
155.35 K	222.51 ± 0.94
158.92 K	228.58 ± 0.96
160 K	229.68 ± 0.96
162.44 K	233.74 ± 0.98
165 K	236.6 ± 1
165.91 K	238.97 ± 1
169.42 K	243.63 ± 1
170 K	243.29 ± 1
172.99 K	248.31 ± 1
175 K	249.78 ± 1
176.5 K	252.64 ± 1.1
179.96 K	257.05 ± 1.1
180 K	256.1 ± 1.1
183.38 K	260.66 ± 1.1
185 K	262.31 ± 1.1
186.84 K	265.34 ± 1.1
190 K	268.46 ± 1.1
190.36 K	269.4 ± 1.1
193.83 K	273.35 ± 1.1
195 K	274.58 ± 1.1
197.26 K	277.29 ± 1.2
200 K	280.71 ± 1.2
200.65 K	280.28 ± 1.2
204 K	284.27 ± 1.2
205 K	286.91 ± 1.2
207.4 K	288.01 ± 1.2
210 K	293.18 ± 1.2
210.85 K	291.95 ± 1.2
214.25 K	296.05 ± 1.2
215 K	299.57 ± 1.2
217.6 K	300.68 ± 1.3
220 K	306.1 ± 1.3
